Laboratory results published in patent US4666897A, “Inhibition of mammalian collagenolytic enzymes by tetracyclines” (Research Foundation of State University, priority 1983, dated 1987).

Legend:
[1] = target: T1, rat PMNL collagenolytic activity (PMNL collagenase) (Rattus norvegicus, UniProt O88766); experiment: Rat PMNL collagenolytic activity in vitro (14C-collagen gel lysis); type: biochemical
T1 construct: An extract of PMNLs was prepared; from tissue; host or cells: extract of peritoneal exudate polymorphonuclear leucocytes of non-diabetic rats, elicited with glycogen
T1 sequence (O88766 102-466): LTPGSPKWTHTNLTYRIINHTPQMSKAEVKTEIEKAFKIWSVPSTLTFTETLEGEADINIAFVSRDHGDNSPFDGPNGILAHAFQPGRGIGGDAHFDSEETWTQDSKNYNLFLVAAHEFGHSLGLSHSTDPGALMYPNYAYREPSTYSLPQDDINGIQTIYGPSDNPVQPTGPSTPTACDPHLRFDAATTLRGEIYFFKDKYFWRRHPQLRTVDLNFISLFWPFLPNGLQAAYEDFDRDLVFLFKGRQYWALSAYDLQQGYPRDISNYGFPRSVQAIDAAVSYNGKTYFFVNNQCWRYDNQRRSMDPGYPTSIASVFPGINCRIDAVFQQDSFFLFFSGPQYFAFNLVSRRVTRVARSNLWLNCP
Experimental: To test the effect of physiologic levels of minocycline (the concentration in human serum, during a therapeutic regimen, is approximately 2 ug/ml; that in the gingival crevicular fluid is 4-5 times greater; Ciancio, et. al., 1980, J. Periodontol., 51, 531-534) on mammalian collagenolytic activity in vitro, peritonealexudate polymorphomuclear leucocytes (PMNLs) were collected from 15 mole (non-diabetic) rats 4 hours after I.P. injection of 0.15% glycogen. An extract of PMNLs was prepared, 250 μl aliquots of this extract were incubated with ^14 C-glycine labeled collagen fibrils for 14 hours at 35° C. (in the presence or absence of minocycline, or EDTA, or additional CaCl2), and collagenolytic activity was measured as described by Nicoll, et al., (Experientia., 37, 315-317).
The techniques used to measure the collagenolytic enzyme activity of gingival tissue in culture, and in polymorphonuclear leucocytes (PMNLs), are those described by Golub, et. al., (J. Dent. Res., 57, 520-525 (197)8) and Nicoll, et. al., (Experimentia, 37, 315-317, (1981)) with minor modifications.

germfree diabetic rats = experiment: Gingival collagenolytic activity, bone loss and skin collagen in germ-free streptozotocin-diabetic rats; type: in vivo, rat
Experimental: At this time (6 weeks after purchase), diabetes was induced in some of the animals, as described above in a), and the control and diabetic animals maintained under germfree conditions for an additional 6 weeks prior to sacrifice. […] Blood and tissues were then obtained to assess gingival collagenolytic enzyme activity and the loss of skin collagen and bone. The results are set forth below and illustrated in FIG. II. Alveolar bone loss was assessed in the right and left mandibles of both the conventional and germfree rats (control and diabetic) using a modification of a previously described technique (Stralfors, et.al, Archs. Oral. Biol., 12, 1213-1216 (1967); Heijl, et. al., J. […] Periodontal Res., 13, 316-325 (1978)) using an eye-piece micrometer in a dissecting microscope (20× magnification). Because uncontrolled diabetes in the rat results in the massive resorption of skin collagen associated with increased collagenase activity in this tissue, the collagen content of entire skins from the germfree and from the conventional control and diabetic rats, including those treated with minocycline was measured. The techniques used were those described by […] and Golub, (Streptozotocin: Fundamentals and Therapy (Ed. M. K. Agarwal, Elsevier/North-Holland Biomed Press, Chapter 12, pp 161-182, (1981)). The techniques used to measure the collagenolytic enzyme activity of gingival tissue in culture, and in polymorphonuclear leucocytes (PMNLs), are those described by Golub, et. al., (J. Dent. Res., 57, 520-525 (197)8) and Nicoll, et. al., (Experimentia, 37, 315-317, (1981)) with minor modifications.

[2] = test system: conventional diabetic rats; experiment: Gingival collagenolytic activity, alveolar bone loss, skin collagen and crevicular microflora in conventional streptozotocin-diabetic rats; type: in vivo, rat; settings: 20 mg per day by gavage
Experimental: Five month old (mean weight, 445g) male Sprague Dawley rats were made diabetic by I.V. injection of streptozotocin (70 mg/kg body weight), after a 12 hour fasting period, (as described by Golub, et al., Biochim. Biophys. Acta., 534, 73-81 (1978) and Golub, et al., Infect. Immun., 37, 1013-1020 (1982). Age matched uninjected rats served as controls. Some of the diabetic rats received the tetracycline, minocycline (20 mg. Minocin® per day; Lederle Laboratories, Pearl River, N.Y.), by gavage on a daily basis beginning 3 days after diabetes is induced. After a 25 day experimental period, blood samples were taken for glucose analysis, and subgingival plaque samples were taken for assessment of the microflora in the region (McNamara, et. al., Archs. Oral. Biol., 27, 217-223 (1982)). The animals were then sacrificed, gingival samples were taken for tissue culture and the jaw bones dissected.
Alveolar bone loss was assessed in the right and left mandibles of both the conventional and germfree rats (control and diabetic) using a modification of a previously described technique (Stralfors, et.al, Archs. Oral. Biol., 12, 1213-1216 (1967); Heijl, et. al., J. Periodontal Res., 15, 405-419 (1980)). The mandibles were defleshed (autoclaving followed by soaking in 2N NaOH for 2-3 h), dried, and the distance (expressed as units; 1 unit=0.05 mm) between the cementoenamel junction (CEJ) and the crest of the alveolar bone is measured in the long axis of the root surface at 10 specified sites on lingual surfaces of the 3 molar teeth (see Crawford, et.al., J. Periodontal Res., 13, 316-325 (1978)) using an eye-piece micrometer in a dissecting microscope (20× magnification).
The techniques used were those described by Schneir and Golub, (Streptozotocin: Fundamentals and Therapy (Ed. M. K. Agarwal, Elsevier/North-Holland Biomed Press, Chapter 12, pp 161-182, (1981)). […]

effect on PMNL collagenolytic (collagenase) activity, in words ([1]; Table 1): almost complete inhibition | Collagenolytic Activity: % ^14 C-collagen gel lysed ([1]; Table 1, PMNL extract + 5 μg/ml, control extract 85.5): 12.4% | Collagenolytic Activity: % ^14 C-collagen gel lysed ([1]; Table 1, PMNL extract + 20 μg/ml + CaCl2 10 mM): 38.5% | Collagenolytic Activity: % ^14 C-collagen gel lysed ([1]; Table 1, PMNL extract + 20 μg/ml + CaCl2 50 mM): 82.1% | Collagenolytic Activity: % ^14 C-collagen gel lysed ([1]; Table 1, PMNL extract + 20 μg/ml, control extract 85.5): 8.3% | Collagenolytic Activity: % ^14 C-collagen gel lyzed ([1]; Table 2, PMNL extract (30 × 10^6 PMNLs per ml) + 20 ug/ml, control extract 39.0): 4.0%
Compound: CN(C)c1ccc(O)c2c1C[C@H]1C[C@H]3[C@H](N(C)C)C(O)=C(C(N)=O)C(=O)[C@@]3(O)C(O)=C1C2=O [minocycline, Minocycline]
increase of skin collagen levels (germfree diabetic rats; germ-free diabetic rats, 20 mg/day for the last 4 weeks, versus untreated diabetics): 45% | bone levels (germfree diabetic rats; germfree control, diabetic and minocycline-treated diabetic rats): no differences | reduction of gingival collagenolytic activity (tissue culture) (germfree diabetic rats; germfree diabetic rats, 20 mg/day by gavage for the last 4 weeks): 70% | Gram-negative microflora in the gingival crevices [2]: eliminated detectable signs | alveolar bone loss in the interproximal region [2]: completely reversed | reduction of gingival collagenolytic activity (tissue culture) ([2]; 25 day experimental period): 62%
